Results from patent US7332486B2, “Phosphodiesterase 4 inhibitors” (Memory Pharmaceuticals Corp., priority 2002, dated 2008).
Where a name gives a salt, the structure may show the parent alone.

Legend:
[1] = Solubility of the mesylate salt in H2O; format: physicochemical
Protocol: To obtain the methansulphonate salt (mesylate salt), 4 ml of 0.1N CH3SO3H in EtOAc was added to a solution of 145 mg (0.4 mmol) 6-cyclopropylamino-9-(2-fluorobenzyl)-2-trifluoromethylpurine in EtOAc. Then, 1 ml of hexane was added to a warm solution and the resultant mixture was allowed to crystallize (within a refrigerator). The solid was collected to give 148 mg of the mesylate salt. […] M.p. 167.5-169.0 C; m.p. 114-118 C for free base.

[2] = system: rats; test: Passive avoidance in rats, an in vivo test for learning and memory; parameters: species or system rat; conditions: MK-801 0.1 mg/kg pretreatment, compared to the vehicle, p<0.001, 24 hours after electric shock
Protocol: The test was performed as previously described (Zhang, H.-T., Crissman, A. M., Dorairaj, N. R., Chandler, L. J., and O'Donnell, J. M., Neuropsychopharmacology, 2000, 23, 198-204.). The apparatus (Model E10-16SC, Coulbourn Instruments, Allentown, Pa.) consisted of a two-compartment chamber with an illuminated compartment connected to a darkened compartment by a guillotine door. The floor of the darkened compartment consisted of stainless steel rods through which an electric foot-shock could be delivered from a constant current source. All experimental groups were first habituated to the apparatus the day before the start of the experiment. During the training, the rat (Male Spraque-Dawley (Harlan) weighing 250 to 350 g) was placed in the illuminated compartment facing away from the closed guillotine door for 1 minute before the door was raised. The latency for entering the darkened compartment was recorded. After the rat entered the darkened compartment, the door was closed and a 0.5 mA electric shock was administered for 3 seconds. […] The latency for entering the darkened compartment was recorded for up to 180 seconds, at which time the trial was terminated.
(§1) All data were analyzed by analyses of variance (ANOVA); individual comparisons were made using Kewman-Keuls tests. […]

[3] = system: rats; test: Radial arm maze task in rats, an in vivo test for learning and memory; parameters: species or system rat; conditions: MK-801 0.1 mg/kg, i.p., compared to control, p<0.01
Protocol: The test was performed as previously described (Zhang, H.-T., Crissman, A. M., Dorairaj, N. R., Chandler, L. J., and O'Donnell, J. M., Neuropsychopharmacology, 2000, 23, 198-204.). Five days after initial housing, rats (male Spraque-Dawley (Harlan) weighing 250 to 350 g) were placed in the eight-arm radial maze (each arm was 60×10×12 cm high; the maze was elevated 70 cm above the floor) for acclimation for two days. Rats were then placed individually in the center of the maze for 5 minutes with food pellets placed close to the food wells, and then, the next day, in the wells at the end of the arms; 2 sessions a day were conducted. Next, four randomly selected arms were then baited with one pellet of food each. The rat was restricted to the center platform (26 cm in diameter) for 15 seconds and then allowed to move freely throughout the maze until it collected all pellets of food or 10 minutes passed, whichever came first. Four parameters were recorded: 1) working memory errors, i.e., entries into baited arms that had already been visited during the same trial; 2) reference memory errors, i.e., entries into unbaited arms; 3) total arm entries; and 4) the test duration (seconds), i.e., the time spent in the collection of all the pellets in the maze. […]
as §1

Fc1ccccc1Cn1cnc2c(NC3CC3)nc(C(F)(F)F)nc21 [Example 4 mesylate salt, 6-cyclopropylamino-9-(2-fluorobenzyl)-2-trifluoromethylpurine]
solubility in H2O [1]: relatively insoluble

C[C@]12N[C@H](Cc3ccccc31)c1ccccc12 [MK-801]
latency for entering the darkened compartment (retention test) [2]: markedly reduced | frequency of reference memory errors [3]: increased | frequency of working memory errors [3]: increased
